We go through 21 molecules from patent publication US20020072535A1 (priority 1997, published 2002).

Common to all, as to assay type: in vivo
In one experiment the test system is Pythium sp. Nature of the experiment: Pythium sp. test (pea)/seed treatment. The following applies: pea seed dressing, evaluation after 14 days. How it is done: Pythium sp. test (pea)/seed treatment
(§1) The active compounds are applied as dry seed dressings. These are prepared by extending the respective active compound or the active compound combination with ground minerals to give a finely pulverulent mixture which ensures uniform distribution on the seed surface.
(§2) To dress the seed, the infected seed together with the seed dressing is shaken for 3 minutes in a sealed glass flask.
2×50 corns of seed are sown at a depth of 2 cm in compost soil naturally infected with phythium sp. and cultivated in a greenhouse at a temperature of about 20° C. in seed trays which receive a light regimen of 15 hours per day.
Evaluation is carried out after 14 days. 0% means an efficacy which corresponds to that of the control, while an efficacy of 100% means that no infection is observed.

Another experiment has as its system Phytophthora infestans. In words: whole plant or invertebrate. The following applies: in Solanum lycopersicum, 72 h, read-out: Efficiacy in %.
For another experiment, the system named is Fusarium nivale. In words: Fusarium nivale test (triticale)/seed treatment. The following applies: triticale seed dressing, about 3 weeks after sowing. How it is done: Fusarium nivale test (triticale)/seed treatment
as §1, §2
2×100 corns of triticale are sown at a depth of 1 cm in standard soil and cultivated in a greenhouse at a temperature of about 10° C. and a relative atmospheric humidity of about 95% in seed trays which receive a light regimen of 15 hours per day.
About 3 weeks after sowing, the plants are evaluated for symptoms. 0% means an efficacy which corresponds to that of the control, while an efficacy of 100% means that no infection is observed.

`Cc1noc(C)c1S(=O)(=O)n1c(Br)nc2cc3c(cc21)OC(F)(F)O3` [(Ia), 1-(3,5-dimethyl-isoxazole-4-sulphonyl)-2-bromo6,6-difluoro[1,3]-dioxolo-[4,5f]-benzimidazole]: the Efficacy in % with Pythium sp. (500 mg/kg of seed) is 1%. For the same molecule, in the experiment with Phytophthora infestans, the pest or weed control at 0.2 g/ha was 14% and the pest or weed control at 1 g/ha was determined as 65%. In addition, in the experiment with Fusarium nivale (100 mg/kg of seed), the Efficacy in % is recorded as 26%.

Regarding `Cc1ccc(C(C)NC(=O)C(NC(=O)OC(C)C)C(C)C)cc1` (centres unmarked), in the experiment on Phytophthora infestans, the pest or weed control at 0.2 g/ha was 0% and the pest or weed control at 1 g/ha is 0%. For the molecule `COc1ccc(C(=CC(=O)N2CCOCC2)c2ccc(Cl)cc2)cc1OC`, the pest or weed control at 0.2 g/ha with Phytophthora infestans came to 0%.

For `COCC(=O)N(c1c(C)cccc1C)C(C)C(=O)OC` (centres unmarked), the pest or weed control at 0.2 g/ha in the experiment on Phytophthora infestans came to 0%. For the molecule `CC(C)(C)C(=O)C(Oc1ccc(Cl)cc1)n1cncn1` (centres unmarked), the pest or weed control at 0.2 g/ha in the experiment on Phytophthora infestans was 0%. Turning to `Cc1cc(C2CC2)nc(Nc2ccccc2)n1`, the pest or weed control at 1 g/ha with Phytophthora infestans was 0%. Regarding `O=C1c2ccccc2C(=O)N1SC(Cl)(Cl)Cl`, in the experiment with Phytophthora infestans, the pest or weed control at 2 g/ha was found to be 12%. Turning to `O=[N+]([O-])/N=C1\NCCN1Cc1ccc(Cl)nc1` [(XXII), 1-[(6-chloro-3-pyridinyl)-methyl]-N-nitro-2-imidazolidineimine], the Efficacy in % with Fusarium nivale (100 mg/kg of seed) came out at 0%. Take `CCC(C)(NC(=O)c1cc(Cl)c(C)c(Cl)c1)C(=O)CCl` (centres unmarked): in the experiment with Phytophthora infestans, the pest or weed control at 0.2 g/ha came to 0%.

In the case of `CO/N=C(\C1=NOCCO1)c1ccccc1Oc1ncnc(Oc2ccccc2Cl)c1F`, the pest or weed control at 1 g/ha in the experiment with Phytophthora infestans came to 27%. For `Cc1noc(C)c1S(=O)(=O)n1c(Cl)nc2cc3c(cc21)OC(F)(F)O3` [(Ib), 1-(3,5-dimethyl-isoxazole-4-sulphonyl)-2-chloro-6,6-difluoro-[1,3]-dioxolo-[4,5f]-benzimidazole], the Efficacy in % was 4% with Pythium sp. (1000 mg/kg of seed), 0% in the experiment on Fusarium nivale (100 mg/kg of seed) and 0% with Fusarium nivale (500 mg/kg of seed). Moreover, in the experiment with Phytophthora infestans, the pest or weed control at 0.2 g/ha worked out at 37%. Moreover, the pest or weed control at 1 g/ha in the experiment on Phytophthora infestans amounted to 76%. Regarding `Cc1cc(C)nc(Nc2ccccc2)n1`, the pest or weed control at 1 g/ha in the experiment with Phytophthora infestans is 0%. Take `CC(C)(C)C(O)C(Oc1ccc(Cl)cc1)n1cncn1` (centres unmarked): the pest or weed control at 0.2 g/ha in the experiment on Phytophthora infestans is 0%. On the same count and under the same terms, then `O=[N+]([O-])/N=C1\NCCN1Cc1ccc(Cl)nc1` [drawing 67], with 6%; and `CCNC(=O)NC(=O)C(C#N)=NOC`, with 0%; and `CC(C)(C)C(O)(CCc1ccc(Cl)cc1)Cn1cncn1` (centres unmarked), with 0%. The same measure, in the same setting: the figure for `CO/C=C(/C(=O)OC)c1ccccc1COc1ccccc1C` is 0%.

Take `CC1(C(=O)Nc2ccc(O)c(Cl)c2Cl)CCCCC1`: in the experiment on Phytophthora infestans, the pest or weed control at 5 g/ha was 0%.

`CC(C)(C)C(O)C(Oc1ccc(-c2ccccc2)cc1)n1cncn1` (centres unmarked): in the experiment with Phytophthora infestans, the pest or weed control at 0.2 g/ha turned out to be 24%.

Turning to `OC(Cc1ccccc1Cl)(Cn1nc[nH]c1=S)C1(Cl)CC1` (centres unmarked), the pest or weed control at 0.2 g/ha in the experiment with Phytophthora infestans is 0%.

In the case of `CO/C=C(/C(=O)OC)c1ccccc1Oc1cc(Oc2ccccc2C#N)ncn1`, the pest or weed control at 0.2 g/ha with Phytophthora infestans is 51%.
